We go through 24 molecules from patent US20240150365A1 (Hotspot Therapeutics, Inc., priority 2022, published 2024).

The IC50 is the concentration at which inhibition is half-maximal.

One experiment concerns NF-kB. As to the kind of experiment: NF-kB reporter assay in Jurkat cells stimulated with aCD3/aCD28/PMA. The note with it: Homo sapiens, Jurkat, read-out: NF-kB Reporter Assay IC50. It is filed as cell-based. In a few lines: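 Jurkat cells (25,000/well, serum-free RPMI 1640) preincubated 1 hr at 37° C with serially diluted compound, then stimulated with aCD3/aCD28/PMA (final 5 μg/mL, 5 μg/mL, 0.03 μg/mL) for 4 hr. Reporter luminescence read with One-Glo; IC50 derived.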
For orientation: In a reporter assay the amount or activity of a reporter protein is the signal.

Another experiment concerns the target T1, MALT1 (Homo sapiens, UniProt Q9UDY8).
T1 construct: Avi-tagged FL MALT-1 (Pharmaron, stored at −70° C.); Avi tag
T1 sequence (Q9UDY8 1-824): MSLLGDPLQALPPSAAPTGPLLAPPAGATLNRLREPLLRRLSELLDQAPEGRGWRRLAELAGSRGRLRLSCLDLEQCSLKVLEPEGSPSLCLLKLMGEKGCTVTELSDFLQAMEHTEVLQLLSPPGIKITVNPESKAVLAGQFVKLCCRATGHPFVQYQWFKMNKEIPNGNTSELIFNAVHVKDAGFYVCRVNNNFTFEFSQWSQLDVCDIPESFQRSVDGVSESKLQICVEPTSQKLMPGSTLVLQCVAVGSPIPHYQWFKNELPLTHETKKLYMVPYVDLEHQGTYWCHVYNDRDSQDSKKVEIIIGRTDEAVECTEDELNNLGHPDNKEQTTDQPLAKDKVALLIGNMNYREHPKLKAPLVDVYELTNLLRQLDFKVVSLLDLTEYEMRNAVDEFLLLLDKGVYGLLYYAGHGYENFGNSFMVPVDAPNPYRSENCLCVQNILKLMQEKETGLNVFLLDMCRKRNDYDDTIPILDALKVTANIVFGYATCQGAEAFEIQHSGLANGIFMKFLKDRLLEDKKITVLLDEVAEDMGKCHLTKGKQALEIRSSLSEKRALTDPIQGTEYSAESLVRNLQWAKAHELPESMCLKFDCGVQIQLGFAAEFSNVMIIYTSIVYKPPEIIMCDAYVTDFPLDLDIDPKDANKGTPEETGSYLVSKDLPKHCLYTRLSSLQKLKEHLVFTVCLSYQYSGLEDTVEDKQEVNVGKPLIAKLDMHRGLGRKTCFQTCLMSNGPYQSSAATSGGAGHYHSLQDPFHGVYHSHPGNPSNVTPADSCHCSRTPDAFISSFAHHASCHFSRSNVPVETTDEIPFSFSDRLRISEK
As to the kind of experiment: MALT-1 Fluorogenic Peptide Cleavage Assay (MALT1 inhibition assay). It is filed as biochemical. The settings on record: Avi-tagged FL MALT-1, Ac-LRSR-AMC peptide substrate, 30 min pre-incubation, 90 min reaction. In a few lines: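 Avi-tagged full-length MALT1 pre-incubated 30 min with compound (2% DMSO final), then cleavage of Ac-LRSR-AMC followed over 90 min at room temperature. AMC fluorescence read at 342/441 nm; % inhibition fitted to sigmoidal curves for IC50.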

[1] abbreviates: Jurkat cells, 1 hr compound incubation, aCD3/aCD28/PMA stimulation 4 hr, One-Glo readout.

Read-outs that look alike come from different tables or passages of the source. Some results are limits rather than exact numbers.

Regarding `CC(C)c1ccn(-c2ccc(S(=O)(=O)N(C)c3cccc4cnn(C)c34)cn2)n1` [Example I-171, 6-(3-isopropyl-1H-pyrazol-1-yl)-N-methyl-N-(1-methyl-1H-indazol-7-yl)pyridine-3-sulfonamide], the figures for the IC50 with NF-kB (setting [1]) and against MALT1 were < 400 nM and > 2500 nM, respectively.
In the case of `COc1ccc2cnn(C)c2c1N(C)S(=O)(=O)c1ccc(-n2cc(C(C)C)cn2)nc1` [Example I-172, 6-(4-isopropylpyrazol-1-yl)-N-(6-methoxy-1-methylindazol-7-yl)-N-methylpyridine-3-sulfonamide], the IC50 is 400 to 1000 nM with NF-kB (setting [1]) and < 400 nM against MALT1.
`COc1ccc2cnn(C)c2c1NS(=O)(=O)c1ccc(-c2csc(C)n2)nc1` [Example I-173, N-(6-methoxy-1-methylindazol-7-yl)-6-(2-methyl-1,3-thiazol-4-yl)pyridine-3-sulfonamide]: the IC50 in the experiment with NF-kB and against MALT1 was < 400 nM throughout.
Consider `COc1ccc2[nH]cc(C)c2c1NS(=O)(=O)c1ccc(-n2cc(C(F)(F)F)cn2)nc1` [Example I-174, N-(5-methoxy-3-methyl-1H-indol-4-yl)-6-(4-(trifluoromethyl)-1H-pyrazol-1-yl)pyridine-3-sulfonamide], for which the IC50 in the experiment on NF-kB (setting [1]) and against MALT1 was < 400 nM in each case.
With `COc1ccc2cn[nH]c2c1NS(=O)(=O)c1ccc(-n2cc(C(F)(F)F)cn2)nc1` [Example I-175, N-(6-methoxy-1H-indazol-7-yl)-6-(4-(trifluoromethyl)-1H-pyrazol-1-yl)pyridine-3-sulfonamide], the IC50 in the experiment on NF-kB (setting [1]) and against MALT1 was < 400 nM throughout.
As for `COc1ccc2cnn(C)c2c1NS(=O)(=O)c1ccc(-c2nc(C)n(C)n2)nc1` [Example I-176, 6-(1,5-Dimethyl-1,2,4-Triazol-3-yl)-N-(6-Methoxy-1-Methylindazol-7-yl)Pyridine-3-Sulfonamide], the IC50 in the experiment on NF-kB (setting [1]) and at MALT1 was > 2500 nM throughout.
`COc1ccc2cnn(C)c2c1NS(=O)(=O)c1ccc(CO)nc1` [Example I-177, 6-(Hydroxymethyl)-N-(6-Methoxy-1-Methyl-1H-Indazol-7-yl)Pyridine-3-Sulfonamide]: the IC50 with NF-kB (setting [1]) and against MALT1 was > 2500 nM throughout.
With `COc1ccc2cnn(C)c2c1NS(=O)(=O)c1ccc(C(C)(C)O)nc1` [Example I-178, 6-(2-Hydroxypropan-2-yl)-N-(6-Methoxy-1-Methyl-1H-Indazol-7-yl)Pyridine-3-Sulfonamide], the IC50 in the experiment on NF-kB (setting [1]) and at MALT1 was > 2500 nM in each case.
With `Cn1c(=O)c2cccc(N)c2n1S(=O)(=O)c1ccc(-n2cc(C(F)(F)F)cn2)nc1` [Example I-179, 7-Amino-2-Methyl-1-((6-(4-(Trifluoromethyl)-1H-Pyrazol-1-yl)Pyridin-3-yl)Sulfonyl)-1,2-Dihydro-3H-Indazol-3-One], the IC50 with NF-kB (setting [1]) and against MALT1 was > 2500 nM each time.
For the molecule `COc1ncc2nnn(C)c2c1NS(=O)(=O)c1ccc(-n2cc(C(F)(F)F)cn2)nc1` [Example I-180, N-{6-methoxy-1-methyl-[1,2,3]triazolo[4,5-c]pyridin-7-yl}-6-[4-(trifluoromethyl)pyrazol-1-yl]pyridine-3-sulfonamide], the IC50 fell in the range of 1000 to 2500 nM in the experiment with NF-kB (setting [1]) and 400 to 1000 nM at MALT1.
Consider `Cn1[nH]c2c(NS(=O)(=O)c3ccc(-n4cc(C(F)(F)F)cn4)nc3)cccc2c1=O` [Example I-181, N-(2-methyl-3-oxo-2,3-dihydro-1H-indazol-7-yl)-6-(4-(trifluoromethyl)-1H-pyrazol-1-yl)pyridine-3-sulfonamide], for which the IC50 is 400 to 1000 nM in the experiment on NF-kB (setting [1]) and > 2500 nM against MALT1.
`Cn1c(=O)c2c(NS(=O)(=O)c3ccc(-n4cc(C(F)(F)F)cn4)nc3)cccc2n1C` [Example I-182, N-(1,2-dimethyl-3-oxo-2,3-dihydro-1H-indazol-4-yl)-6-(4-(trifluoromethyl)-1H-pyrazol-1-yl)pyridine-3-sulfonamide]: the IC50 with NF-kB (setting [1]) and on MALT1 was > 2500 nM throughout.
`COc1ncc2cnn(C)c2c1N(C)S(=O)(=O)c1ccc(-n2cc(C(F)(F)F)cn2)nc1` [Example I-183, N-(6-methoxy-1-methyl-1H-pyrazolo[4,3-c]pyridin-7-yl)-N-methyl-6-(4-(trifluoromethyl)-1H-pyrazol-1-yl)pyridine-3-sulfonamide]: the IC50 in the experiment on NF-kB (setting [1]) and against MALT1 was < 400 nM in each case.
For `COc1ncc2cnn(C)c2c1NS(=O)(=O)c1ccc(-n2cc(C)cn2)nc1` [Example I-184, N-{6-methoxy-1-methylpyrazolo[4,3-c]pyridin-7-yl}-6-(4-methylpyrazol-1-yl)pyridine-3-sulfonamide], the IC50 in the experiment on NF-kB (setting [1]) and against MALT1 was < 400 nM in each case.
For the molecule `COc1ncc2cnn(C)c2c1NS(=O)(=O)c1ccc(-n2ccc(C3CC3)n2)nc1` [Example I-185, 6-(3-cyclopropyl-1H-pyrazol-1-yl)-N-(6-methoxy-1-methyl-1H-pyrazolo[4,3-c]pyridin-7-yl)pyridine-3-sulfonamide], the IC50 in the experiment on NF-kB (setting [1]) and on MALT1 was < 400 nM in each case.
Regarding `COc1ncc2cnn(C)c2c1NS(=O)(=O)c1ccc(-c2csc(C)n2)nc1` [Example I-186, N-(6-methoxy-1-methyl-1H-pyrazolo[4,3-c]pyridin-7-yl)-6-(2-methylthiazol-4-yl)pyridine-3-sulfonamide], the IC50 in the experiment on NF-kB (setting [1]) and at MALT1 was < 400 nM throughout.
As for `COc1ncc2cnn(C)c2c1NS(=O)(=O)c1ccc(-n2cc(C3CC3)cn2)nc1` [Example I-187, 6-(4-cyclopropylpyrazol-1-yl)-N-{6-methoxy-1-methylpyrazolo[4,3-c]pyridin-7-yl}pyridine-3-sulfonamide], the IC50 with NF-kB (setting [1]) and against MALT1 was < 400 nM in each case.
For the molecule `COc1ccc2ccn(C)c2c1NS(=O)(=O)c1ccc(-n2cc(C(F)(F)F)cn2)nc1` [Example I-188, N-(6-methoxy-1-methyl-1H-indol-7-yl)-6-(4-(trifluoromethyl)-1H-pyrazol-1-yl)pyridine-3-sulfonamide], the IC50 with NF-kB (setting [1]) and on MALT1 was < 400 nM in each case.
In the case of `Cc1ncc2cnn(C)c2c1NS(=O)(=O)c1ccc(-n2cc(C(F)(F)F)cn2)nc1` [Example I-189, N-(1,6-dimethyl-1H-pyrazolo[4,3-c]pyridin-7-yl)-6-(4-(trifluoromethyl)-1H-pyrazol-1-yl)pyridine-3-sulfonamide], the IC50 in the experiment on NF-kB (setting [1]) and against MALT1 was 1000 to 2500 nM in each case.
As for `Cn1[nH]c2cccc(NS(=O)(=O)c3ccc(-n4cc(C(F)(F)F)cn4)nc3)c2c1=O` [Example I-190, N-(2-methyl-3-oxo-2,3-dihydro-1H-indazol-4-yl)-6-(4-(trifluoromethyl)-1H-pyrazol-1-yl)pyridine-3-sulfonamide], the IC50 with NF-kB (setting [1]) and against MALT1 was > 2500 nM throughout.
`COc1ccc2cnn(C)c2c1NS(=O)(=O)c1ccc(-n2cc(C(C)(F)F)cn2)nc1` [Example I-191, 6-(4-(1,1-difluoroethyl)-1H-pyrazol-1-yl)-N-(6-methoxy-1-methyl-1H-indazol-7-yl)pyridine-3-sulfonamide]: the IC50 with NF-kB (setting [1]) and at MALT1 was < 400 nM throughout.
In the case of `COc1ncc2cnn(C)c2c1NS(=O)(=O)c1ccc(-n2cc(C(F)F)cn2)nc1` [Example I-192, 6-(4-(difluoromethyl)-1H-pyrazol-1-yl)-N-(6-methoxy-1-methyl-1H-pyrazolo[4,3-c]pyridin-7-yl)pyridine-3-sulfonamide], the concentration for half-maximal inhibition (IC50) in the experiment on NF-kB (setting [1]) and against MALT1 was < 400 nM each time.
As for `COc1ncc2cnn(C)c2c1NS(=O)(=O)c1ccc(-n2cc(F)cn2)nc1` [Example I-193, 6-(4-fluoro-1H-pyrazol-1-yl)-N-(6-methoxy-1-methyl-1H-pyrazolo[4,3-c]pyridin-7-yl)pyridine-3-sulfonamide], the IC50 with NF-kB (setting [1]) and on MALT1 was < 400 nM in each case.
On to `COc1ncc2cnn(C)c2c1NS(=O)(=O)c1ccc(-n2cc(C(C)C)cn2)nc1` [Example I-194, 6-(4-isopropyl-1H-pyrazol-1-yl)-N-(6-methoxy-1-methyl-1H-pyrazolo[4,3-c]pyridin-7-yl)pyridine-3-sulfonamide], for which the IC50 in the experiment with NF-kB (setting [1]) and against MALT1 was < 400 nM throughout.
